Measurements as given in US20190112357A1, “PREVENTION OF PROTEIN DISULFIDE BOND REDUCTION” (MedImmune, LLC, priority 2016, published 2019).

Key:
GR/GSSG = target: T1, GR/GSSG (Homo sapiens, UniProt P00390); assay: DTNB reductase activity assay, recombinant GR/GSSG; format: biochemical; details: ATG concentrations lower than 5 μM
T1 construct: purchased Abcam
T1 sequence (P00390 44-522): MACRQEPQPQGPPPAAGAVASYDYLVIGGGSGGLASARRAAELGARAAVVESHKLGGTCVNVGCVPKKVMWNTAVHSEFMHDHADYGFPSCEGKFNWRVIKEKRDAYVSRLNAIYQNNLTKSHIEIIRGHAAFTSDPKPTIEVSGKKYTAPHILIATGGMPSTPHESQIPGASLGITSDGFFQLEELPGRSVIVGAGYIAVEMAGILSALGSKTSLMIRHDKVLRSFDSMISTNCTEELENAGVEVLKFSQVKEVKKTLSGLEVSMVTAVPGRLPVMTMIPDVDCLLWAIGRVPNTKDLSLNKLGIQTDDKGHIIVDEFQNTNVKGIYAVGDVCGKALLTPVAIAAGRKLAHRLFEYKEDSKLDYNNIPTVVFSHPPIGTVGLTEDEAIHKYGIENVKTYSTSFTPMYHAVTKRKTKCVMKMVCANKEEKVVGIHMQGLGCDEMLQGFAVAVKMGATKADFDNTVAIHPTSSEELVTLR
Experimental: Briefly, culture samples were thawed on ice. […] The samples were then allowed to incubate 5 minutes.
Activity of the reductases was calculated as follows. […] The activity was then calculated by the following equation: […]

[1] = test system: GR isolated from CHO cell culture; assay: mAb B reduction by pooled CHO fractions with NADPH and GSSG; format: biochemical, Chinese Hamster; details: 3 μM Cu^2+ or 100 μM ATG, overnight room temperature
Experimental: Purified mAb B was spiked into several solutions containing different combinations of the pooled fractions (PF), recombinant Trx1, GSSG, NADPH, ATG, and Cu^2+. The solutions were incubated at room temperature overnight and the amount of intact antibody remaining was determined by capillary electrophoresis according to the protocol described above. In the first set of samples, purified mAb B was spiked into the pooled fractions with, and without, NADPH.
In the second set of samples, purified mAb B was spiked into solutions containing the pooled enzymes, NADPH, GSSG, and either no inhibitor, 3 μM Cu^2+, or 100 μM ATG. […] This solution contained GR, GSSG, and NADPH, which are needed for the glutathione system.

[2] = target: T2, recombinant mammalian GR/GSSG (Homo sapiens, UniProt P00390); assay: Reduction of purified mAb B by recombinant GR/GSSG, capillary electrophoresis; format: biochemical
T2 construct: purchased Abcam
T2 sequence (P00390 44-522): T1 sequence (P00390 44-522)
Experimental: (§1) Antibody reduction in cell culture supernatant samples was measured by detecting the presence of reduced species via capillary electrophoresis using standard procedures on a 2100 Bioanalyzer system (Agilent Technologies, Santa Clara, Calif.). Samples were diluted 1-6 fold depending on titer and analyzed under non-reducing conditions following 2100 Bioanalyzer standard protocols. Supernatant samples from 3 L bioreactors were stored frozen until all samples had been acquired and were ready for analysis. Samples were thawed on ice and analyzed immediately to evaluate the amount of reduced antibody in the reactor on each day of the run.
Using the same approach with recombinant mammalian enzymes, the glutathione system was evaluated by spiking mAb B into five solutions containing: 1) no enzyme, 2) 1 mM GSSG (oxidized glutathione), 3) 0.2 μM GR (glutathione reductase), 4) 0.2 μM GR with 1 mM GSSG, and 5) 0.02 μM GR with 1 mM GSSG. […] The results indicated a minimal mAb B reduction in the solutions containing GSSG alone. This is the result of an impurity in the GSSG. […] was reduced in the solutions containing both GR and GSSG.
(§2) To confirm that the activity from a particular reductase system can translate into reduced antibody, a second method was developed to determine the impact of each reductase system on antibody reduction. The principle of the reduction assay is similar to the reductase activity assay described above. The percent of protein reduction without an inhibitor was compared to the percent of protein reduction in the presence of specific inhibitors for GR or TrxR1. In this assay, purified mAb B was spiked into solutions containing recombinant mammalian TrxR1/Trx1 or recombinant mammalian GR/GSSG and stored in an oxygen-free environment overnight. The percent of reduced mAb B antibody was evaluated using capillary electrophoresis, as set forth above.

[3] = target: T3, recombinant mammalian TrxR1/Trx1 (Rattus norvegicus, UniProt O89049); assay: Reduction of purified mAb B by recombinant TrxR1/Trx1, capillary electrophoresis; format: biochemical, human (Trx1); details: 0.1 mM ATG, purified mAb B, overnight, oxygen-free
T3 construct: purchased Cayman Chemical (TrxR1); Abcam (Trx1)
T3 sequence (O89049 1-499): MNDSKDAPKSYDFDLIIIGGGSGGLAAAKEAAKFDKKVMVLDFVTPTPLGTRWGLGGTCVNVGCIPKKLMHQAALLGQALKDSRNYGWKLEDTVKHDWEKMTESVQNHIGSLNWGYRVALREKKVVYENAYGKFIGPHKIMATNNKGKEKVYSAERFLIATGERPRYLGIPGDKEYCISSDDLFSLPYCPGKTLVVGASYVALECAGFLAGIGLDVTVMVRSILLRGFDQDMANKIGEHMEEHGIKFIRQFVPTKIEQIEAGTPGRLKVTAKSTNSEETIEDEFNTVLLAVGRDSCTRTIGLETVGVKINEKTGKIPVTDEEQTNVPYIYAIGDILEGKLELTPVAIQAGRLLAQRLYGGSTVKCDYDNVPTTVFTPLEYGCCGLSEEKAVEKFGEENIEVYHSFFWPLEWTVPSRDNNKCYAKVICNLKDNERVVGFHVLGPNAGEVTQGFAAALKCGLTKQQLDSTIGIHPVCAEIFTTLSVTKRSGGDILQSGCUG
Experimental: as §1
The role of each enzymatic system in antibody reduction was evaluated by determining the conditions under which these reductase systems cause antibody reduction. Using purified recombinant mammalian reductases, the thioredoxin system was evaluated by spiking purified mAb B into five solutions containing: 1) no enzymes, 2) 1 μM TrxR1, 3) 0.1 μM TrxR1, 4) […], and 5) 0.1 μM TrxR1+2.5 μM Trx1. All samples contained 0.4 mM NADPH and were stored at room temperature overnight. Digital gel-like images were obtained from microchip-based capillary electrophoresis analysis.
as §2

Structure (SMILES): OC[C@H]1O[C@H]([S-])[C@H](O)[C@@H](O)[C@@H]1O.[Au+] [ATG, aurothioglucose]
- reductase activity of solutions containing GR/GSSG (GR/GSSG): unaffected
- antibody reduction in pooled enzymes, NADPH, GSSG [1]: did not inhibit antibody reduction
- antibody reduction in sample containing GR/GSSG ([2]; 0.1 mM ATG, purified mAb B, overnight, oxygen-free): complete reduction of the antibody
- specificity in GR/GSSG samples at higher concentrations ([2]; 0.5 mM and 1 mM ATG, increasing intact antibody): no longer specific for the thioredoxin system
- antibody reduction in sample containing TrxR1/Trx1 [3]: complete inhibition of antibody reduction
